The results in this text go back to patent publication US20150216848A1, “COMPOUNDS THAT INHIBIT TAU PHOSPHORYLATION” (THE TRANSLATIONAL GENOMICS RESEARCH INSTITUTE, priority 2010, published 2015).

For one data set, the system named is H4 neuroglioma cell line. Put plainly: Viability (toxicity) assay, alamar Blue. The data set is classed as cell-based. The conditions noted are these: for IC50: read-out: IC50 for viability (toxicity); for effect on the viability of the cells at the lower doses: 9-ethylharmine 1 μM, harmine 0.8 μM. For orientation: Resazurin is reduced to fluorescent resorufin, in cell work by metabolically active cells.

Data set [1] has as its system total tau and phosphorylated tau (12E8 pS262/pS356, pT231, pS396) in 4R0N tau overexpressing H4 neuroglioma cells. Put plainly: Cell culture tau assay (Western blot of total and phosphorylated tau). The data set is classed as cell-based. The conditions noted are these: for effects in the cell-based tau assay: FIG. 3; for total tau and phosphorylated forms of tau: doses up to 500 μM; for phosphorylated forms of tau (12E8 pS262/pS356, pT231, pS396): H4-tau cells, 80 nM, 800 nM and 8 μM, 96 hours.

The target of another data set is T1, recombinant human DYRK1A (Homo sapiens, UniProt Q13627).
T1 construct: purchased Invitrogen (DYRK1A); SignalChem (tau)
The data set is classed as biochemical. The conditions noted are these: for IC50: recombinant DYRK1A and 4R2N tau, 1 mM ATP, read-out: IC50, inhibition of DYRK1A dependent tau phosphorylation at serine 396.

Data set [2] concerns spatial working memory and short-term memory retention. Put plainly: Delayed-match-to-sample asymmetrical 3-choice task. Format: in vivo, rat. An excerpt:
(§1) Twenty-six 17 month-old Fischer-344 male rats raised at the National Institute on Aging colony at Harlan Laboratories (Indianapolis, Ind.) were used in the study. After arrival, rats were pair-housed, had food and water ad-lib, and were maintained on a 12-h light/dark cycle. Procedures were approved by the Institutional Animal Care and Use Committee, and adhered to National Institutes of Health standards.
(§2) Rats were randomly divided into three treatment groups (n at start of study, m included in final behavioral analyses): vehicle (10, 10), low-Harmine 1 mg/kg (10, 10), or high-Harmine 5 mg/kg (10, 6). […]
Spatial working memory and short-term memory retention were evaluated using a win-stay water-escape DMS asymmetrical place-learning task. […] Entry into any non-platformed arm was counted as an error. An arm entry was counted when the tip of a rat's snout reached a mark on the outside of the arm (not visible from the inside of the maze; 11 cm into the arm).
In an initial analysis, Harmine-low and Harmine-high groups were compared. […] DMS data were analyzed with an omnibus ANOVA with treatment as the between groups variable and total number of errors for each trial as repeated measures. MM data were analyzed with an omnibus ANOVA with treatment as the between groups variable and swim distance (cm) to the platform as repeated measures. […]

The test system of another data set is spatial reference memory. Put plainly: Morris water maze. The data set is classed as in vivo, rat. The conditions noted are these: rats.
From the text: as §1, §2
Spatial reference memory was evaluated using the Morris Maze. […] A video camera and tracking system tracked and measured each rat's swim pathway.
(§3) In an initial analysis, Harmine-low and Harmine-high groups were compared. […] DMS data were analyzed with an omnibus ANOVA with treatment as the between groups variable and total number of errors for each trial as repeated measures. MM data were analyzed with an omnibus ANOVA with treatment as the between groups variable and swim distance (cm) to the platform as repeated measures. […] Visible platform data were further analyzed using a regression analysis with testing squad (1-3) as the predictor and mean escape latency across trials 1-6 as the criterion. […]

The test system of data set [3] is motor and visual competence. Put plainly: Visible platform task and observed motor side effects. Format: in vivo, rat. The conditions noted are these: rats.
From the text: as §1
Rats were randomly divided into three treatment groups (n at start of study, m included in final behavioral analyses): vehicle (10, 10), low-Harmine 1 mg/kg (10, 10), or high-Harmine 5 mg/kg (10, 6). Nine days after arrival, animals started receiving daily subcutaneous injections at a volume of 1 ml/kg. […] Behavioral testing began after the second injection day, testing commenced approximately 30-45 minutes after injections and lasted for 6-8 hours. Animals were assigned semi-randomly to one of three testing squads of 10 animals each balanced with respect to treatment group.
Four days after MM testing, motor and visual competence were evaluated using the visible platform task. This was an adaptation of the cue-navigation version of the spatial MM task previously used to dissociate visual and motor acuity from place memory. This task was ideal due to its similarity to other spatial water-maze tasks with respect to motor and visual requirements, differing only in that animals are not required to associate the location of the platform with distal cues. […]
as §3

Entries after “also recorded” stand apart in the source; their conditions may differ. Like-named read-outs stand apart in the source and are kept apart here.

One may read the IC50 as the concentration that gives 50% inhibition. Turning to harmol, the half-inhibitory concentration (IC50) with H4 neuroglioma cell line (H4 neuroglioma cell line, alamar Blue, fresh drug every 24 hours for 4 days) was 18 µM; at recombinant human DYRK1A it was 0.09 µM. Moreover, the “reducing total tau and phosphorylated tau levels” value in data set [1] (dose of 10 μM) is on record as “significant effects”.
`c1ccc2c(c1)[nH]c1cnccc12` [norharmane]: the concentration for half-maximal inhibition (IC50) in the data set with H4 neuroglioma cell line is 95 µM. The “effects in the cell-based tau assay” value in data set [1] is “relatively muted effects”. Also, on recombinant human DYRK1A, the “affinity relative to harmine in the in vitro phosphorylation assay” value is reported as “more than an order of magnitude lower in affinity than harmine”.
For the compound `O=C(NCCN1CCOCC1)c1ccc(Cl)cc1` [moclobemide, reference compound], the “total tau and phosphorylated forms of tau” value in data set [1] is listed as “did not affect tau phosphorylation”; in data set [1] (listed as Moclobemide) it was “did not reduce levels”.
Turning to `COc1ccc2c(c1)[nH]c1c(C)nccc12` [harmine], the “effect on the viability of the cells at the lower doses” value with H4 neuroglioma cell line is listed as “no detectable effect”. Besides, the 50% inhibitory concentration (IC50) in the data set with H4 neuroglioma cell line was found to be 12 µM. Besides, the “reducing total tau and phosphorylated tau levels” value in data set [1] (0.8 μM) is given as “significant reductions”; in data set [1] (dose of 10 μM), “significant effects”. Besides, in data set [1] (0.8 μM and 8 μM), the “levels of total tau protein” value is on record as “reduce the levels of total tau protein”. In addition, the results for the “phosphorylated forms of tau (12E8 pS262/pS356, pT231, pS396)” value in data set [1] and in data set [1] (listed as Harmine) were “dose-dependent reduction” and “reduced the expression of each phospho-tau species tested”, respectively. In addition, the “total errors on the DMS task, testing block 4 (Days 8-9), trials 2-6” value in data set [2] (17 month-old Fischer-344 male rats, 1 and 5 mg/kg daily subcutaneous, groups combined, vs vehicle, P=0.03) is “enhanced working and short-term memory; also recorded: fewer total errors”. Further, in data set [2] (rats, 1 and 5 mg/kg s.c. combined), the “DMS task, testing blocks 1, 2 or 3” value is reported as “no main effects”. Also, in the data set on spatial reference memory (1 and 5 mg/kg s.c.), the “Morris maze distance swam to the platform, days 1-3” value is on record as “no Harmine treatment main effects”. The “effect on spatial reference memory” value in the data set with spatial reference memory (doses tested 1 and 5 mg/kg s.c.) is listed as “no significant effect”. Besides, in data set [3] (Harmine-high 5 mg/kg s.c.), the “decrease of mean escape latency with each squad tested (visible platform task)” value is recorded as “roughly 11.6 seconds”. Further, the “duration of motor impairments after injections” value in data set [3] (Harmine-high 5 mg/kg s.c.) is 1 to 2 h. Besides, the motoric effects entry in data set [3] (harmine treatment) is “obvious motoric effects”.
Turning to `CCn1c2cc(OC)ccc2c2ccnc(C)c21` [9-ethyl harmine], the “effect on the viability of the cells at the lower doses” value in the data set with H4 neuroglioma cell line is recorded as “no detectable effect”. Further, the IC50 came to 9 µM with H4 neuroglioma cell line and 0.4 µM on recombinant human DYRK1A. Moreover, the entries for the “reducing total tau and phosphorylated tau levels” value in data set [1] (1 μM) and in data set [1] (dose of 10 μM) were “significant reductions” and “significant effects”, respectively.
For the compound `COc1ccc2c3c([nH]c2c1)C(C)=NCC3` [harmaline], the half-maximal inhibitory concentration (IC50) in the data set on H4 neuroglioma cell line stood at 56 µM. Moreover, the “effects in the cell-based tau assay” value in data set [1] is given as “relatively muted effects”. In addition, at recombinant human DYRK1A, the “affinity relative to harmine in the in vitro phosphorylation assay” value is given as “more than an order of magnitude lower in affinity than harmine”.
For `Cc1nccc2c1[nH]c1ccccc12` [harmane] the same measures were 32 µM, “relatively muted effects” and “more than an order of magnitude lower in affinity than harmine”.
